The supplement of paper PMC10307832

Columns and labels:
Experiment in all cases: relative viability (nuclei count vs DMSO), 5 days (fraction); higher = more cells survive
[1] = tested on: NCI-H1355
In short: (§1)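 Relative viability equals treated-well nuclei counts divided by vehicle-well nuclei counts. Counts came from 4× images of lung cancer cell lines grown in 1536-well plates for 5 days after pin-tool dosing on the day after seeding. Dosing used one drug alone or a fixed anchor-drug dose plus five library-drug doses (not always all listed) in √10 steps, and values are medians of duplicate plates.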

[2] = tested on: BEN
In short: as §1

[3] = tested on: NCI-H441
In short: as §1

[4] = tested on: NCI-H1563
In short: as §1

[5] = tested on: NCI-H1975
In short: as §1

[6] = tested on: NCI-H1437
In short: as §1

[7] = tested on: NCI-H1650
In short: as §1

[8] = tested on: CAL-12T
In short: as §1

[9] = tested on: NCI-H1734
In short: as §1

[10] = tested on: HCC-366
In short: as §1

[11] = tested on: NCI-H1651
In short: as §1

[12] = tested on: EKVX
In short: as §1

[13] = tested on: NCI-H2085
In short: as §1

[14] = tested on: LU99A
In short: as §1

[15] = tested on: NCI-H2023
In short: as §1

[16] = tested on: HCC-44
In short: as §1

[17] = tested on: NCI-H838
In short: as §1

[18] = tested on: NCI-H1755
In short: as §1

[19] = tested on: LOU-NH91
In short: as §1

[20] = tested on: NCI-H460
In short: as §1

Question: With `C=C1C(=O)O[C@@H](CCCCCCCC)[C@@H]1C(=O)O` [C-75] + CC(C)C[C@H](NC(=O)[C@H](Cc1ccccc1)NC(=O)c1cnccn1)B(O)O [Bortezomib] (partner 0.002 µM) as the compound, how does the relative viability ([1]; first compound 0.08 µM) read?
Answer: 1.24

Question: And the relative viability ([1]; first compound 0.253 µM)?
Answer: 1.28

Question: And the relative viability ([1]; first compound 0.8 µM)?
Answer: 1.07

Question: What about the relative viability ([1]; first compound 2.53 µM) of the same compound?
Answer: 1.1

Question: And the relative viability ([1]; first compound 8 µM)?
Answer: 1.21

Question: What about the relative viability ([2]; first compound 0.08 µM) of the same compound?
Answer: 0.847

Question: What about the relative viability ([2]; first compound 0.253 µM) of the same compound?
Answer: 0.868

Question: And the relative viability ([2]; first compound 0.8 µM)?
Answer: 0.666

Question: And the relative viability ([2]; first compound 2.53 µM)?
Answer: 0.639

Question: And the relative viability ([2]; first compound 8 µM)?
Answer: 0.653

Question: What about the relative viability ([3]; first compound 0.08 µM) of the same compound?
Answer: 0.497

Question: And the relative viability ([3]; first compound 0.253 µM)?
Answer: 0.259

Question: And the relative viability ([3]; first compound 0.8 µM)?
Answer: 0.447

Question: What about the relative viability ([3]; first compound 2.53 µM) of the same compound?
Answer: 0.315

Question: What about the relative viability ([3]; first compound 8 µM) of the same compound?
Answer: 0.26

Question: And the relative viability ([4]; first compound 0.08 µM)?
Answer: 0.855

Question: And the relative viability ([4]; first compound 0.253 µM)?
Answer: 1.1

Question: What about the relative viability ([4]; first compound 0.8 µM) of the same compound?
Answer: 0.963

Question: And the relative viability ([4]; first compound 2.53 µM)?
Answer: 0.763

Question: And the relative viability ([4]; first compound 8 µM)?
Answer: 0.906

Question: What about the relative viability ([5]; first compound 0.08 µM) of the same compound?
Answer: 0.332

Question: And the relative viability ([5]; first compound 0.253 µM)?
Answer: 0.395

Question: And the relative viability ([5]; first compound 0.8 µM)?
Answer: 0.4

Question: What about the relative viability ([5]; first compound 2.53 µM) of the same compound?
Answer: 0.283

Question: And the relative viability ([5]; first compound 8 µM)?
Answer: 0.361

Question: And the relative viability ([6]; first compound 0.08 µM)?
Answer: 0.572

Question: What about the relative viability ([6]; first compound 0.253 µM) of the same compound?
Answer: 0.546

Question: What about the relative viability ([6]; first compound 0.8 µM) of the same compound?
Answer: 0.483

Question: What about the relative viability ([6]; first compound 2.53 µM) of the same compound?
Answer: 0.546

Question: What about the relative viability ([6]; first compound 8 µM) of the same compound?
Answer: 0.455

Question: And the relative viability ([7]; first compound 0.08 µM)?
Answer: 0.223

Question: And the relative viability ([7]; first compound 0.253 µM)?
Answer: 0.212

Question: And the relative viability ([7]; first compound 0.8 µM)?
Answer: 0.198

Question: What about the relative viability ([7]; first compound 2.53 µM) of the same compound?
Answer: 0.158

Question: What about the relative viability ([7]; first compound 8 µM) of the same compound?
Answer: 0.187

Question: What about the relative viability ([8]; first compound 0.08 µM) of the same compound?
Answer: 0.949

Question: And the relative viability ([8]; first compound 0.253 µM)?
Answer: 0.967

Question: And the relative viability ([8]; first compound 0.8 µM)?
Answer: 0.758

Question: What about the relative viability ([8]; first compound 2.53 µM) of the same compound?
Answer: 0.946

Question: What about the relative viability ([8]; first compound 8 µM) of the same compound?
Answer: 0.928

Question: What about the relative viability ([9]; first compound 0.08 µM) of the same compound?
Answer: 1.13

Question: What about the relative viability ([9]; first compound 0.253 µM) of the same compound?
Answer: 0.934

Question: What about the relative viability ([9]; first compound 0.8 µM) of the same compound?
Answer: 0.886

Question: What about the relative viability ([9]; first compound 2.53 µM) of the same compound?
Answer: 0.812

Question: What about the relative viability ([9]; first compound 8 µM) of the same compound?
Answer: 0.785

Question: And the relative viability ([10]; first compound 0.08 µM)?
Answer: 1.07

Question: What about the relative viability ([10]; first compound 0.253 µM) of the same compound?
Answer: 1.16

Question: What about the relative viability ([10]; first compound 0.8 µM) of the same compound?
Answer: 0.973

Question: And the relative viability ([10]; first compound 8 µM)?
Answer: 0.941

Question: What about the relative viability ([11]; first compound 0.08 µM) of the same compound?
Answer: 0.92

Question: And the relative viability ([11]; first compound 0.253 µM)?
Answer: 0.894

Question: And the relative viability ([11]; first compound 0.8 µM)?
Answer: 0.875

Question: What about the relative viability ([11]; first compound 2.53 µM) of the same compound?
Answer: 0.843

Question: And the relative viability ([11]; first compound 8 µM)?
Answer: 0.886

Question: What about the relative viability ([12]; first compound 0.08 µM) of the same compound?
Answer: 0.996

Question: And the relative viability ([12]; first compound 0.253 µM)?
Answer: 1.09

Question: What about the relative viability ([12]; first compound 0.8 µM) of the same compound?
Answer: 1.17

Question: What about the relative viability ([12]; first compound 2.53 µM) of the same compound?
Answer: 0.947

Question: And the relative viability ([12]; first compound 8 µM)?
Answer: 1.01

Question: And the relative viability ([13]; first compound 0.08 µM)?
Answer: 1.13

Question: What about the relative viability ([13]; first compound 0.253 µM) of the same compound?
Answer: 0.882

Question: And the relative viability ([13]; first compound 0.8 µM)?
Answer: 0.999

Question: And the relative viability ([13]; first compound 2.53 µM)?
Answer: 0.76

Question: And the relative viability ([13]; first compound 8 µM)?
Answer: 0.897

Question: What about the relative viability ([14]; first compound 0.08 µM) of the same compound?
Answer: 1.1

Question: What about the relative viability ([14]; first compound 0.253 µM) of the same compound?
Answer: 1.03

Question: What about the relative viability ([14]; first compound 0.8 µM) of the same compound?
Answer: 1.08

Question: What about the relative viability ([14]; first compound 2.53 µM) of the same compound?
Answer: 0.933

Question: What about the relative viability ([14]; first compound 8 µM) of the same compound?
Answer: 0.885

Question: What about the relative viability ([15]; first compound 0.08 µM) of the same compound?
Answer: 1.04

Question: And the relative viability ([15]; first compound 0.253 µM)?
Answer: 1.22

Question: And the relative viability ([15]; first compound 0.8 µM)?
Answer: 0.902

Question: What about the relative viability ([15]; first compound 2.53 µM) of the same compound?
Answer: 0.843

Question: And the relative viability ([15]; first compound 8 µM)?
Answer: 0.835

Question: And the relative viability ([16]; first compound 0.08 µM)?
Answer: 0.885

Question: And the relative viability ([16]; first compound 0.253 µM)?
Answer: 0.863

Question: And the relative viability ([16]; first compound 0.8 µM)?
Answer: 0.857

Question: And the relative viability ([16]; first compound 2.53 µM)?
Answer: 0.714

Question: And the relative viability ([16]; first compound 8 µM)?
Answer: 0.89

Question: And the relative viability ([17]; first compound 0.08 µM)?
Answer: 0.66

Question: And the relative viability ([17]; first compound 0.253 µM)?
Answer: 0.588

Question: And the relative viability ([17]; first compound 0.8 µM)?
Answer: 0.8

Question: And the relative viability ([17]; first compound 2.53 µM)?
Answer: 0.656

Question: What about the relative viability ([17]; first compound 8 µM) of the same compound?
Answer: 0.684

Question: And the relative viability ([18]; first compound 0.08 µM)?
Answer: 0.985

Question: And the relative viability ([18]; first compound 0.253 µM)?
Answer: 0.96

Question: And the relative viability ([18]; first compound 0.8 µM)?
Answer: 0.925

Question: And the relative viability ([18]; first compound 2.53 µM)?
Answer: 0.805

Question: What about the relative viability ([18]; first compound 8 µM) of the same compound?
Answer: 0.957

Question: What about the relative viability ([19]; first compound 0.08 µM) of the same compound?
Answer: 0.47

Question: What about the relative viability ([19]; first compound 0.253 µM) of the same compound?
Answer: 0.495

Question: And the relative viability ([19]; first compound 0.8 µM)?
Answer: 0.454

Question: What about the relative viability ([19]; first compound 2.53 µM) of the same compound?
Answer: 0.346

Question: And the relative viability ([19]; first compound 8 µM)?
Answer: 0.394

Question: What about the relative viability ([20]; first compound 0.08 µM) of the same compound?
Answer: 1.05

Question: What about the relative viability ([20]; first compound 0.253 µM) of the same compound?
Answer: 1.22

Question: What about the relative viability ([20]; first compound 0.8 µM) of the same compound?
Answer: 0.982

Question: What about the relative viability ([20]; first compound 8 µM) of the same compound?
Answer: 0.945
